# Reference: patent publication US8481496B2, “Gold (III) complexes with oligopeptides functionalized with sulfur donors and use thereof as antitumor agents” (Universita' Degli Studi di Padova, priority 2009, dated 2013)
# What was measured:
# [1] = test system: MDA-MB-231 tumor; settings: MDA-MB-231 tumor-bearing nude mice; cited from earlier work
# [2] = test system: cisplatin-sensitive (2008) and -resistant (C13*) human ovarian carcinoma cells; settings: cited from earlier work
# [3] = test system: human prostate carcinoma PC3 cells; assay: In vitro cytotoxicity, BrdU cell proliferation ELISA; type: cell-based; settings: 72 h exposure, 0.05-10 μM
# Procedure: Human prostate carcinoma PC3 cells (established from bone marrow metastasis and unresponsive to androgen treatment) were cultured in IMDM (Iscove's Modified Dulbecco's medium) supplemented with 10% heat-inactivated fetal bovine serum (FBS), penicillin (2 mg mL^−1), streptomycin (2 mg mL^−1), L-glutamine (0.1% w/v) at 37° C. in 5% CO2 and moisture-enriched atmosphere.
# Before use, [Au^IIIX2(pdtc)] complexes (AUD6, AUD7, AUD8, AUD9) and cisplatin were dissolved in methyl sulfoxide (DMSO) just before the experiments. Calculated amounts of drug solutions were then added to the proper medium to a final concentration of 0.5% (v/v) DMSO which had no discernible effect on cell death.
# For the cytotoxicity assay, cells (2.5×10^3 cells mL^−1) were seeded in 96-well flat-bottomed microplates in IMDM supplemented with 10% heat-inactivated FBS and incubated at 37° C. in a 5% CO2 atmosphere. The medium was then removed and replaced with a fresh one containing the compounds to be studied (previously dissolved in DMSO) at increasing concentrations (0.05-10 μM), thus exposing cells to the investigated compounds for 72 h. Triplicate cultures were established for each treatment. Cell viability was determined by a cell proliferation ELISA 5-bromo-2′-deoxyuridine colorimetric kit, according to the manufacturer's protocol. […] For comparison purposes, the cytotoxicity of cisplatin was evaluated under the same experimental conditions.
# [4] = test system: estrogen receptor α-negative human breast cancer MDA-MB-231 cells; assay: Growth inhibition, MTT assay; type: cell-based; settings: 1-50 μM, 22 h, FIG. 2
# Procedure: The growth-inhibitory effect of AUD6 and AUD8 on estrogen receptor α-negative human breast cancer MDA-MB-231 cells has been also evaluated. Cells were grown in RPMI 1640 medium supplemented with 10% heat-inactivated fetal bovine serum, penicillin (100 units mL^−1), streptomycin (100 μg mL^−1), L-glutamine (0.1% w/v) at 37° C. in 5% CO2 and moisture-enriched atmosphere. For the cytotoxicity assay, cells were seeded in 96-well microplates in RPMI 1640 medium and grown to 70% to 80% confluency followed by addition of the compounds to be studied (previously dissolved in DMSO) at increasing concentrations (1-50 μM) and incubated at 37° C. in a 5% CO2 atmosphere, thus exposing cells to the investigated compounds for 22 h. Triplicate cultures were established for each treatment. Cell respiration, as an indicator of cell viability, was determined by the mitochondrial-dependent reduction of MTT (3-(4,5-dimethylthiazol-2-yl)-2,5-diphenyltetrazolium bromide) to formazan as previously described [V. Milacic, D. Chen, L. Ronconi, K. R. Landis-Piwowar, D. Fregona, Q. P. Dou, Cancer Res. 2006, 66, 10478-10486]. Cell viability was calculated by dividing the average absorbance of the cells treated with the test compounds by that of the control, the standard deviation being estimated from the average of three trials.
# [5] = test system: purified rabbit 20S proteasome; assay: Inhibition of proteasomal chymotrypsin-like activity, purified proteasome; type: biochemical; settings: for potency relative to previously investigated Au(III)-dithiocarbamato analogues: purified rabbit 20S proteasome; for inhibition of proteasomal chymotrypsin-like activity: purified rabbit 20S proteasome (35 ng), 0.1-25 μM, 2 h, FIG. 3A
# Procedure: (§1) To investigate whether these compounds could also have the proteasome as a biological target, purified rabbit 20S proteasome (35 ng) or MDA-MB-231 whole cell extract (10 μg) were incubated with 20 μM of the substrate (for proteasomal chymotryptic (CT) activity) in 100 μL assay buffer (20 mmol L^−1 Tris-HCl (pH 7.5) in the presence of the compounds to be studied (previously dissolved in DMSO) at increasing concentrations (0.1-25 μM) or equivalent volume of neat DMSO as control. After 2 h incubation at 37° C., inhibition of each proteasomal chymotryptic activity was measured as previously described [V. Milacic et al. 2006, ref. cit.].
# [6] = biological target: T1, MDA-MB-231 whole cell extract (Homo sapiens, UniProt P28074); assay: Inhibition of proteasomal chymotrypsin-like activity, whole cell extract; type: biochemical; settings: for potency relative to previously investigated Au(III)-dithiocarbamato analogues: MDA-MB-231 whole cell extract; for inhibition of proteasomal chymotrypsin-like activity: MDA-MB-231 whole cell extract (10 μg), 0.1-25 μM, 2 h, FIG. 3B
# T1 construct: MDA-MB-231 whole cell extract (10 μg); endogenous in cells; host or cells: MDA-MB-231 whole cell extract
# T1 sequence (P28074 60-263): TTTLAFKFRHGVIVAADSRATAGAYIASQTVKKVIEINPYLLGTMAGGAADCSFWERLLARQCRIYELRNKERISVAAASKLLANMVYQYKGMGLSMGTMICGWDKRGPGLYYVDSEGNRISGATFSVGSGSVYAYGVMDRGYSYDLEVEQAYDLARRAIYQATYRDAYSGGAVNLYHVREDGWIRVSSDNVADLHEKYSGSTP
# Procedure: as §1
# [7] = test system: proteasome target proteins, such as Bax and p27; assay: Accumulation of proteasome target proteins; type: cell-based; settings: preliminary
# [8] = test system: human breast cancer (MDA-MB-231) xenografts; assay: Human breast tumor xenograft experiments; type: in vivo; settings: 1.0 mg kg−1 s.c. daily, after 13 days, female athymic nude mice
# Procedure: Estrogen receptor α-negative human breast cancer MDA-MB-231 cells were grown in RPMI 1640 medium supplemented with 10% fetal bovine serum, penicillin (100 units mL^−1), and streptomycin (100 μg mL^−1) at 37° C. in 5% CO2 and moisture-enriched atmosphere.
# Five week-old female athymic nude mice were purchased from Taconic Research Animal Services (Hudson) and housed according to protocols approved by the Institutional Laboratory Animal Care and Use Committee of Wayne State University. MDA-MB-231 cells (5.0×10^6 cells mL^−1 suspended in 0.1 mL of serum-free RPMI 1640 medium) were inoculated subcutaneously (s.c.) in right flank of each mouse (four mice per group). When tumors reached the size of ca. 120 mm^3, mice were randomly grouped and treated daily with s.c. injection of either 1.0 mg kg^−1 of AUD6 or AUD8, or vehicle [10% DMSO, 20% Cremophore/ethanol (3:1) and 70% PBS]. Tumor size was measured every other day using calipers and their volumes were calculated according to the formula width^2×length/2. Mice have being treated for 13 days. Initial tumor growth inhibition was analyzed.
molecule,measurement,setting,value
CN(C)C1=[S+][Au-]([Br])([Br])[S]1 [[Au^IIIBr2(DMDT)]],inhibition of tumor growth,[1],significant inhibition of tumor growth
CCOC(=O)CN(C)C(=S)[S][Pt][Cl].c1ccncc1 [[Pt^IICl(ESDT)(py)]],inhibition of tumor cell growth compared with cisplatin,[2]; 2008 and C13* cells,greater inhibition of tumor cell growth than cisplatin
same,cross-resistance in C13* cells,[2]; cisplatin-resistant C13* cells,complete lack of cross-resistance
"N.N.[Cl][Pt][Cl] [cisplatin, cis-dichlorodiamminoplatinum(II), reference compound]",IC50,[3],2600 ± 200 nM
[Au^IIIBr2((t-Bu)O-Aib-Sar-dtc)] [AUD8],IC50,[3],550 ± 50 nM
same,growth-inhibitory effect on MDA-MB-231 cells,[4],slightly higher activity
same,potency relative to previously investigated Au(III)-dithiocarbamato analogues,[5],two-fold more potent
same,inhibition of proteasomal chymotrypsin-like activity,[5],concentration-dependent
same,potency relative to previously investigated Au(III)-dithiocarbamato analogues,[6],two-fold more potent
same,inhibition of proteasomal chymotrypsin-like activity,[6],concentration-dependent
same,"accumulation of proteasome target proteins (Bax, p27)",[7],induce accumulation of proteasome target proteins
same,tumor growth inhibition,[8],> 90%
[Au^IIIBr2((t-Bu)O-Gly-Sar-dtc)] [AUD6],IC50,[3],850 ± 70 nM
same,potency relative to previously investigated Au(III)-dithiocarbamato analogues,[5],two-fold more potent
same,inhibition of proteasomal chymotrypsin-like activity,[5],concentration-dependent
same,potency relative to previously investigated Au(III)-dithiocarbamato analogues,[6],two-fold more potent
same,inhibition of proteasomal chymotrypsin-like activity,[6],concentration-dependent
same,"accumulation of proteasome target proteins (Bax, p27)",[7],induce accumulation of proteasome target proteins
same,tumor growth inhibition,[8],ca. 33%
[Au^IIICl2((t-Bu)O-Aib-Sar-dtc)] [AUD9],IC50,[3],750 ± 60 nM
[Au^IIICl2((t-Bu)O-Gly-Sar-dtc)] [AUD7],IC50,[3],1000 ± 100 nM
